Measured values as given in patent publication US20260240842A1, “METHODS TO PREVENT THERAPY RESISTANCE IN MELANOMA VIA BLOCKING GENOMIC INSTABILITY” (THE REGENTS OF THE UNIVERSITY OF CALIFORNIA, priority 2022, published 2026).

Test system: p-DNA-PKcs (S2056)
Assay: Immunofluorescence of p-DNA-PKcs (S2056) nuclear foci in early on-treatment PDX tumors
Format: in vivo, NSG mice
Details: with or without MEKi; Mel_PDX1, 11 days; FIG. 13F
From the text: FIGS. 13A-13H. In vivo impacts of DNA-PKi when combined with MAPKi. FIGS. 13A and 13B: Long-term follow-up of tumor volumes (13A, BRAFi+MEKi, n=5 tumors; BRAFi+MEKi+DNA-PKi, n=6 tumors) (13B, MEKi, n=6 tumors; MEKi+DNAP-PKi, n=6 tumors) and average mice body weights for 13A and 13B. Related to experiments in FIGS. 7B and 7E, respectively. FIGS. 13C and 13D, Tumor volumes (mean±SEM) of two examples of tumor models treated short-term with vehicle or indicated single versus combined agents. Inhibitors and dosages are identical to those in FIGS. 7C and 7E, respectively. The numbers of tumors and their sizes are shown in the photographs (right) taken at the times of tumor harvest (end points). FIGS. 13E to 13G: Immunofluorescence of p-ERK (13E), p-DNA-PKcs (S2056) (13F), or γH2AX (13G) levels in Mel_PDX1 tumor model, treated with vehicle or indicated single versus combined agents for 11 days (shown in 13C). DAPI, nuclear stain. Scale bar, 50 μm (13E) and 20 μm (13F and 13G). Representative images shown for two tumors analyzed per group. Quantification of p-DNA-PKcs signals obtained by taking the average of positively stained foci per nucleus (13F, representative of 4 fields). Quantification of γH2AX signals analyzed either by percentage of cells with γH2AX foci or percentage of cells with greater than 5 γH2AX foci (13G, representative of 4 fields). […]

O=c1cc(N2CCOCC2)oc2c1ccc1ccccc12 [NU7026]
nuclear p-DNA-PKCS foci: suppressed nuclear p-DNA-PKCS foci
